Results reported in article PMC11637438, “Chickpea NCR13 disulfide cross-linking variants exhibit profound differences in antifungal activity and modes of action” (PLOS Pathogens, 2024).
Like-named read-outs stand apart in the source and are kept apart here. Bridge positions count the residues as written; N and C are the ends. Ends that are not written are not given here. Peptide text beside a SMILES is read from it.

Key:
B. cinerea [1] = assay type: cell-based, Botrytis cinerea; settings: for fold reduction in antifungal activity relative to NCR13_CS: reduced peptides
Procedure: (§1) B. cinerea strain T4 was cultured in V8 medium for 3 weeks at 25°C. Fungal spores were collected by flooding the fungal growth plates with water and scraped using a sterile spreader. The spore suspension was filtered through two layers of Miracloth, followed by centrifugation at 12,000 g for 2 minutes (min) and subsequently washed twice with sterile water. Lastly, fungal spores were resuspended in Synthetic Fungal Media (SFM). The spore suspension was adjusted to the desired spore density of about 10^5 spores/mL using a hemocytometer. Fusarium virguliforme (F. virguliforme) was grown and maintained regularly in potato dextrose agar (PDA) (Difco Laboratories) medium. Two weeks old F. virguliforme plates were used to collect spores as described above for B. cinerea followed by centrifugation and washing steps. Spores were counted using a hemocytometer and adjusted to the final concentration of 10^5 spores/mL in 2X SFM media. Sclerotinia sclerotiorum obtained from the field of pennycress in Illinois was grown on PDA medium at room temperature.
The antifungal activity of NCR13 against fungal pathogens was determined using the resazurin cell viability assay, as described previously. Briefly, 45 μL of each peptide dilution (0, 0.09, 0.1875, 0.375, 0.75, 1.5, 3, and 6 μM) was added to each well of the microtiter plate containing 45 μL (~10^5 spores/mL) of spore suspension. Three biological replicates were used for each treatment and the experiments were repeated three times. Resazurin at 0.1% (w/v) was added to each well after incubation for 48 h. Images were taken at ~24 h. The Minimum Inhibitory Concentration (MIC) for each peptide denotes the lowest concentration at which the peptide halts the growth of fungus evident through a lack of color change from blue to […]. The in vitro antifungal activity of NCR13_PFVs against S. sclerotiorum was determined using a 24-well plate assay as previously described. Mycelial plugs (1 mm in diameter) cut from the growing edge of the two day-old actively growing colony were transferred from PDA media to a series of wells containing 250 μL of SFM.

Fusarium virguliforme = test: In vitro antifungal assay, resazurin cell viability (MIC); assay type: cell-based; settings: resazurin assay in SFM, ~10^5 spores/mL
Procedure: as §1
(§2) The antifungal activity of NCR13 against fungal pathogens was determined using the resazurin cell viability assay, as described previously. […] The in vitro antifungal activity of NCR13_PFVs against S. sclerotiorum was determined using a 24-well plate assay as previously described. […]

Sclerotinia sclerotiorum = test: In vitro antifungal assay, 24-well plate with mycelial plugs (MIC); assay type: cell-based; settings: mycelial plugs in 250 μL SFM
Procedure: as §1, §2

B. cinerea [2] = assay type: in vivo, Botrytis cinerea on tomato (Solanum lycopersicum); settings: 3 μM peptide sprayed on pre-inoculated four-week-old tomato plants; 5 leaves per plant, 4 plants
Procedure: To test the curative antifungal activity of peptides against B. cinerea, 4-week-old pepper and tomato plants were used. Plants were first sprayed with 1 mL of B. cinerea spores (about 5 × 10^4) suspended in SFM. After 8 h of B. cinerea challenge, 2 mL of NCR13_PFV1 or NCR13_PFV2 (3.0 and 1.5 μM) were sprayed per plant. Control plants were sprayed with 2 mL of water. All plants were placed in a high humid environment for 72 h. Plants were imaged at 72 h after infection in white light and high-resolution fluorescence images were taken using CropReporter (PhenoVation). The quantification of plant health was carried out using the calculated Fv/Fm (maximum quantum yield of photosystem II) images of CropReporter showing the efficiency of photosynthesis in false colors.
For the curative assay using pepper and tomato plants, pictures of whole plants and detached leaves were taken as described above. […] Four plants were used per treatment and for each plant the disease was assessed per leaf. Besides disease severity (DS), the inhibition of disease by treatment was also evaluated. […]

[3] = B. cinerea, resazurin assay in SFM, ~10^5 spores/mL, resazurin added after 48 h, three biological replicates

Row | Compound | Minimal Inhibitory Concentration (MIC) (B. cinerea [1]; 48 h) | Minimal Inhibitory Concentration (MIC) (B. cinerea [1]; [3]) | other results
1 | CC[C@H](C)[C@H](NC(=O)[C@H](CS)NC(=O)[C@H](C)NC(=O)[C@H](C)NC(=O)[C@H](C)NC(=O)[C@H](CCCCN)NC(=O)[C@@H]1CCCN1C(=O)[C@H](CCCCN)NC(=O)[C@H](CCCNC(=N)N)NC(=O)[C@H](CS)NC(=O)[C@H](C)NC(=O)[C@H](Cc1ccccc1)NC(=O)[C@H](CCCCN)NC(=O)[C@H](CCCCN)NC(=O)[C@H](CS)NC(=O)[C@H](CC(=O)O)NC(=O)[C@H](CCCCN)NC(=O)[C@H](CC(=O)O)NC(=O)[C@H](CO)NC(=O)[C@H](CCC(N)=O)NC(=O)[C@H](CS)NC(=O)[C@@H]1CCCN1C(=O)[C@H](CCCCN)NC(=O)[C@@H](N)[C@@H](C)O)C(=O)N[C@@H](CC(N)=O)C(=O)NCC(=O)N[C@@H](Cc1ccccc1)C(=O)N[C@@H](CS)C(=O)N[C@@H](CCCCN)C(=O)N[C@@H](CS)C(=O)N[C@H](C(=O)N[C@@H](CCCNC(=N)N)C(=O)O)C(C)C [NCR13_AlaV4] (H-TKPCQSDKDCKKFACRKPKAAACINGFCKCVR-OH; N-terminus and C-terminus assumed) | > 12 µM | – | –
2 | CC[C@H](C)[C@@H]1NC(=O)[C@@H]2CSSC[C@H](NC(=O)[C@H](Cc3ccccc3)NC(=O)CNC(=O)[C@H](CC(N)=O)NC1=O)C(=O)N[C@@H](CCCCN)C(=O)N[C@H](C(=O)N[C@H](C(=O)N[C@@H](CCCNC(=N)N)C(=O)O)C(C)C)CSSC[C@H](NC(=O)[C@H](C)NC(=O)[C@H](Cc1ccccc1)NC(=O)[C@H](CCCCN)NC(=O)[C@H](CCCCN)NC(=O)[C@@H]1CSSC[C@H](NC(=O)[C@@H]3CCCN3C(=O)[C@H](CCCCN)NC(=O)[C@@H](NC(=O)[C@H](C)N)[C@@H](C)O)C(=O)N[C@@H](CCC(N)=O)C(=O)N[C@@H](CO)C(=O)N[C@@H](CC(=O)O)C(=O)N[C@@H](CCCCN)C(=O)N[C@@H](CC(=O)O)C(=O)N1)C(=O)N[C@@H](CCCNC(=N)N)C(=O)N[C@@H](CCCCN)C(=O)N1CCC[C@H]1C(=O)N[C@@H](CCCCN)C(=O)N[C@@H](C(C)C)C(=O)N1CCC[C@H]1C(=O)N[C@@H](CCCCN)C(=O)N2 [NCR13_PFV2] (H-ATKPCQSDKDCKKFACRKPKVPKCINGFCKCVR-OH; disulfide 5-11, 16-31, 24-29) | – | 1.5 µM | Minimal Inhibitory Concentration (MIC) (Fusarium virguliforme): 1.5 µM; Minimal Inhibitory Concentration (MIC) (Sclerotinia sclerotiorum): 24 µM; inhibition of gray mold disease, tomato (B. cinerea [2]): 40%
3 | CC[C@H](C)[C@H](NC(=O)[C@H](CS)NC(=O)[C@H](CCCCN)NC(=O)[C@@H]1CCCN1C(=O)[C@@H](NC(=O)[C@H](CCCCN)NC(=O)[C@@H]1CCCN1C(=O)[C@H](CCCCN)NC(=O)[C@H](CCCNC(=N)N)NC(=O)[C@H](CS)NC(=O)[C@H](C)NC(=O)[C@H](Cc1ccccc1)NC(=O)[C@H](CCCCN)NC(=O)[C@H](CCCCN)NC(=O)[C@H](CS)NC(=O)[C@H](C)NC(=O)[C@H](C)NC(=O)[C@H](C)NC(=O)[C@H](C)NC(=O)[C@H](C)NC(=O)[C@H](CS)NC(=O)[C@@H]1CCCN1C(=O)[C@H](CCCCN)NC(=O)[C@@H](N)[C@@H](C)O)C(C)C)C(=O)N[C@@H](CC(N)=O)C(=O)NCC(=O)N[C@@H](Cc1ccccc1)C(=O)N[C@@H](CS)C(=O)N[C@@H](CCCCN)C(=O)N[C@@H](CS)C(=O)N[C@H](C(=O)N[C@@H](CCCNC(=N)N)C(=O)O)C(C)C [NCR13_AlaV1] (H-TKPCAAAAACKKFACRKPKVPKCINGFCKCVR-OH; N-terminus and C-terminus assumed) | 6 µM | – | fold reduction in antifungal activity relative to NCR13_CS (B. cinerea [1]; B. cinerea): 2 fold
4 | TKPSQSDKDSKKFASRKPKVPKSINGFSKSVR [NSR13] | > 24 µM | Inactive | –
5 | CC[C@H](C)[C@H](NC(=O)[C@H](CS)NC(=O)[C@H](CCCCN)NC(=O)[C@@H]1CCCN1C(=O)[C@@H](NC(=O)[C@H](CCCCN)NC(=O)[C@@H]1CCCN1C(=O)[C@H](CCCCN)NC(=O)[C@H](CCCNC(=N)N)NC(=O)[C@H](CS)NC(=O)[C@H](C)NC(=O)[C@H](Cc1ccccc1)NC(=O)[C@H](CCCCN)NC(=O)[C@H](CCCCN)NC(=O)[C@H](CS)NC(=O)[C@H](CC(=O)O)NC(=O)[C@H](CCCCN)NC(=O)[C@H](CC(=O)O)NC(=O)[C@H](CO)NC(=O)[C@H](CCC(N)=O)NC(=O)[C@H](CS)NC(=O)[C@@H]1CCCN1C(=O)[C@H](CCCCN)NC(=O)[C@@H](N)[C@@H](C)O)C(C)C)C(=O)N[C@@H](CC(N)=O)C(=O)NCC(=O)N[C@@H](Cc1ccccc1)C(=O)N[C@@H](CS)C(=O)N[C@@H](CCCCN)C(=O)N[C@@H](CS)C(=O)N[C@H](C(=O)N[C@@H](CCCNC(=N)N)C(=O)O)C(C)C [NCR13_CS] (H-TKPCQSDKDCKKFACRKPKVPKCINGFCKCVR-OH; N-terminus and C-terminus assumed) | – | 3 µM | fold decrease in antifungal activity compared to NCR13_PFV1 (B. cinerea [1]; B. cinerea): ~33 fold; fold decrease in antifungal activity compared to NCR13_PFV2 (B. cinerea [1]; B. cinerea): 2 fold
6 | CC(C)[C@H](NC(=O)[C@H](CS)NC(=O)[C@H](CCCCN)NC(=O)[C@H](CS)NC(=O)[C@H](C)NC(=O)[C@H](C)NC(=O)[C@H](C)NC(=O)[C@H](C)NC(=O)[C@H](CS)NC(=O)[C@H](CCCCN)NC(=O)[C@@H]1CCCN1C(=O)[C@@H](NC(=O)[C@H](CCCCN)NC(=O)[C@@H]1CCCN1C(=O)[C@H](CCCCN)NC(=O)[C@H](CCCNC(=N)N)NC(=O)[C@H](CS)NC(=O)[C@H](C)NC(=O)[C@H](Cc1ccccc1)NC(=O)[C@H](CCCCN)NC(=O)[C@H](CCCCN)NC(=O)[C@H](CS)NC(=O)[C@H](CC(=O)O)NC(=O)[C@H](CCCCN)NC(=O)[C@H](CC(=O)O)NC(=O)[C@H](CO)NC(=O)[C@H](CCC(N)=O)NC(=O)[C@H](CS)NC(=O)[C@@H]1CCCN1C(=O)[C@H](CCCCN)NC(=O)[C@@H](N)[C@@H](C)O)C(C)C)C(=O)N[C@@H](CCCNC(=N)N)C(=O)O [NCR13_AlaV5] (H-TKPCQSDKDCKKFACRKPKVPKCAAAACKCVR-OH; N-terminus and C-terminus assumed) | 12 µM | – | fold reduction in antifungal activity relative to NCR13_CS (B. cinerea [1]; B. cinerea): 4 fold
7 | CC[C@H](C)[C@H](NC(=O)[C@H](CS)NC(=O)[C@H](CCCCN)NC(=O)[C@@H]1CCCN1C(=O)[C@@H](NC(=O)[C@H](CCCCN)NC(=O)[C@@H]1CCCN1C(=O)[C@H](CCCCN)NC(=O)[C@H](CCCNC(=N)N)NC(=O)[C@H](CS)NC(=O)[C@H](C)NC(=O)[C@H](C)NC(=O)[C@H](C)NC(=O)[C@H](C)NC(=O)[C@H](CS)NC(=O)[C@H](CC(=O)O)NC(=O)[C@H](CCCCN)NC(=O)[C@H](CC(=O)O)NC(=O)[C@H](CO)NC(=O)[C@H](CCC(N)=O)NC(=O)[C@H](CS)NC(=O)[C@@H]1CCCN1C(=O)[C@H](CCCCN)NC(=O)[C@@H](N)[C@@H](C)O)C(C)C)C(=O)N[C@@H](CC(N)=O)C(=O)NCC(=O)N[C@@H](Cc1ccccc1)C(=O)N[C@@H](CS)C(=O)N[C@@H](CCCCN)C(=O)N[C@@H](CS)C(=O)N[C@H](C(=O)N[C@@H](CCCNC(=N)N)C(=O)O)C(C)C [NCR13_AlaV2] (H-TKPCQSDKDCAAAACRKPKVPKCINGFCKCVR-OH; N-terminus and C-terminus assumed) | > 12 µM | – | –
8 | CC(C)[C@H](NC(=O)[C@H](CCCCN)NC(=O)[C@@H]1CCCN1C(=O)[C@H](CCCCN)NC(=O)[C@H](CCCNC(=N)N)NC(=O)[C@H](CS)NC(=O)[C@H](C)NC(=O)[C@H](Cc1ccccc1)NC(=O)[C@H](CCCCN)NC(=O)[C@@H](N)CCCCN)C(=O)N1CCC[C@H]1C(=O)N[C@@H](CCCCN)C(=O)N[C@@H](CS)C(=O)O [NCR13 active motif] (H-KKFACRKPKVPKC-OH; N-terminus and C-terminus assumed) | – | 3 µM | –
